What was measured:
SW480 cells = experiment: Cytotoxicity assay, CellTiter-Glo 2.0, SW480 cells; assay type: cell-based; conditions: SW480, human colon cancer cell line expressing kRAS G12V; 48 hours
Method: FIG. 2, panels A-B, illustrate the cytotoxicity of Structure 2 and Structure 3 on SW480 cells. The cytotoxicity of compounds of interest was tested against the human colon cancer cell line SW480 as described in the experimental section. SW480 cells express a mutant G12V kRAS. Compounds were incubated with cells for 48 hours and the assay was developed using Cell Titer Glo 2.0. IC50 vales were determined using GraphPad Prism 4.
Compounds were assayed for inhibition of cell proliferation and killing cancer cells. Cytotoxicity assays were conducted according to the following general procedure. SW480, SW48, SW900, SW620 were all maintained in Leibowitz L15 media supplemented with 10% fetal bovine serum and 1% PenStrep and grown in a 37° C. incubator without supplemental CO2. Capan-1 cells were maintained in Iscove's Modified Dulbecco's Medium (ATCC 30-2005) containing 20% fetal bovine serum and 1% PenStrep and grown in a 37° C. incubator containing 5% CO2.
For dose-response assays, SW480 cells were plated into 96 well plates (1 million/plate, ˜10,000/well, 250 μL media/well). Cells were allowed to settle and adhere to plate bottom overnight Compounds were placed in 500 μL media and mixed. Then 250 μL compounds+media was placed in an intermediate plate in row A. Rows B through H were filled with 125 μL media. […] Luminescence was read with FLx800 (BioTek Instruments).

HT-1080 cells = experiment: Cell morphology assay; assay type: cell-based, human; conditions: 24 hours, 1.2-100 μM, Alexa Fluor 488 Phalloidin
Method: FIG. 7, panels A-F, illustrate the effect of an exemplary compound of Structure 2 on the HT-1080 cells in a cell morphology assay. Effect of Structure 2 on the HT-1080 cells in cell morphology assay. HT1080 cells were seeded in 6-well plates at 300,000 per plate, incubated overnight and various amounts of Structure 2 (compound 1) in the DMSO vehicle or vehicle control added. After 24 hours, cells were washed, fixed with formaldehyde, stained with Alexa Fluor 488 Phalloidin and imaged using a fluorescence microscope. […]
An assay was performed (see e.g., Kato-Stankiewicz et al., Inhibitors of RAS/Raf-1 interaction identified by two-hybrid screening revert RAS-dependent transformation phenotypes in human cancer cells. Proc Natl Acad Sci USA. 2002; 99: 14398-403) to evaluate the ability of an inhibitor to dampen the RAS/RAF/MEK/ERK pathway and provide a reversion of cell appearance from a rounded to a flat, elongated morphology (Paterson et al., Activated nRAS controls the transformed phenotype of HT1080 human fibrosarcoma cells. Cell. 1987 Dec. 4; 51 (5):803-12). […] Cells were then washed 2 times with PBS and imaged using a Zeiss Axiovert 25 fluorescence microscope.

[1] = Multi-day safety study in mice; assay type: in vivo; conditions: female CD1 mice, 2 mg/kg ip daily for 6 days
Method: The multi-day safety study used female, 10 week old, CD1 mice (4/treatment group) dosed with DMSO. Mice were administered 2 mg/kg of Structure 2 or 10 mg/kg Structure 3, ip, daily for 6 days and evaluated for changes clinical chemistry values, hematology values and animal weight as well as signs of health and grooming habits.
Heparinized blood samples were obtained by retro-orbital puncture on Day 6, 12 hours after the last dose of Structure 2. The plasma harvested from the blood was analyzed for standard clinical chemistry parameters (ALB. ALP, ALT, AMY, TBIL, BUN, CA, PHOS, CRE GLU, NA, K, TP & GLOB) and hematology (WBC, LYM, MON, GRA, RBC, HGB, HCT, MCV, MCH, MCHC, RDWc, PLT, PCT, MPV, PDWc) analytes (see definitions herein). Animal weight changes were also monitored. Values for all analytes were analyzed by one way ANOVA plus post-hoc Bonferroni using SPSS (IBM, Armonk, NY).

## Cc1nc(-c2ccc(CNC(=O)c3cc(CC(C)C)nn3C)cc2)no1 [Structure 2, 3-isobutyl-1-methyl-N-(4-(5-methyl-1,2,4-oxadiazol-3-yl)benzyl)-1H-pyrazole-5-carboxamide]
SW480 cells
  IC50: 232 nM
HT-1080 cells
  reversion of cell phenotype (morphology): produced reversion of cell phenotype from the rounded to the flatter more elongated morphology
[1]
  body weight or grooming habits versus dosing vehicle treated animals: no statistically significant difference
  clinical chemistry changes versus dosing vehicle treated animals: no significant clinical chemistry changes
[1]; Day 6
  ALB: 3.88 ± 0.30 g/dL
  ALP: 66.50 ± 8.80 U/L
  ALT: 59.00 ± 32.50 U/L
  AMY: 871.50 ± 74.70 U/L
  BUN: 18.25 ± 4.10 mg/dL
  CRE: 0.34 ± 0.10 mg/dL
  Ca^++: 9.43 ± 0.40 mg/dL
  GLOB: 1.23 ± 0.10 g/dL
  GLU: 234.25 ± 31.70 mg/dL
  GRA: 1.23 ± 0.20 10^9/l
  GRA (%): 19.03 ± 3.70%
  HCT: 44.34 ± 4.60%
  HGB: 15.23 ± 1.70 g/dL
  K^+: 5.35 ± 0.40 mmol/L
  LYM: 5.17 ± 1.80 10^9/l
  LYM (%): 76.18 ± 3.50%
  MCH: 16.15 ± 0.40 pg
  MCHC: 34.35 ± 1.30 g/dL
  MCV: 47.00 ± 2.40 fL
  MON: 0.33 ± 0.10 10^9/l
  MON (%): 4.85 ± 0.40%
  MPV: 7.10 ± 0.60 fL
  NA^+: 147.00 ± 0.80 mmol/L
  PCT: 0.31 ± 0.10%
  PDWc: 33.08 ± 3.40%
  PHOS: 8.13 ± 1.00 mg/dL
  PLT: 448.50 ± 193.10 10^9/l
  RBC: 9.44 ± 1.00 10^12/l
  RDWc: 17.40 ± 0.40%
  TBIL: 0.43 ± 0.00 mg/dL
  TP: 5.08 ± 0.20 g/dL
  WBC: 6.72 ± 2.00 10^9/l

— patent publication US12486255B2, “Modulators of RAS GTPase” (Tosk, Inc., priority 2018, dated 2025)
